Measured values: US6821530B2, “Polymer composite compositions” (Shriners Hospitals for Children, priority 2000, dated 2004)

Columns and labels:
[1] = system: primary tendon fibroblast cultures; assay: Fibroblast replication after single NDGA exposure; assay type: cell-based, calf
Experimental: (§1) Cell cultures: Digital extensor tendons were excised fresh from new born calves euthanized at a local abattoir and held in Dulbecco's Phosphate Buffered Saline during dissection and preparation for culture. Tendons were minced, weighed, and then digested with 0.1% w/v testicular hyaluronidase in 0.15 M NaCl, 0.1 M NaH2PO4, pH 7.0 (5 ml/g wet tissue weight) at 37° C. for 45 minutes. The hyaluronidase wash was decanted and the tissue was next digested with 5 mg/g tissue of Pronase E and 5 mg/g tissue of collagenase in 4% bovine serum albumen in DMEM/Ham F12 medium at 37° C. overnight. Cells were isolated from the tissue residue and washed with PBS. Cells were dispersed in DMEM/Ham F12 medium, counted, and plated on 24-well culture plates. Cells were cultured in DMEM/Ham F12 containing 10% FBS unless otherwise noted.
Effect of NDGA on fibroblast replication. To determine whether NDGA or oxidation products derived from the cross-linking reaction influenced cell replication, primary tendon fibroblast cultures were treated with a single exposure at the start of culture with concentrations of NDGA from […]. Fibroblasts were subsequently cultured for 1, 2, and 4 weeks. At each time point, the number of viable cells in each treatment group was determined. The lower NDGA concentrations, […], had no effect on cell replication (FIG. 15).

[2] = NDGA quantitation in culture medium by capillary zone electrophoresis; assay type: physicochemical; set-up: Initial NDGA remaining in medium: dose or concentration left out as unconfirmed
Experimental: NDGA Quantitation: The amount of NDGA in the buffers, eluents, and medium was determined by capillary zone electrophoresis on a Dionex CES. A sodium borate buffer (10 mM sodium borate, 50 mM boric acid, pH 8.0) was chosen for electrophoresis because it was known that borate efficiently complexes with catechols and increases absorptivity (Waite et al., Methods. Enzymol. 107:397-413, 1984). Samples were diluted in electrophoresis buffer, loaded by electrophoresis (5000 V for 5 seconds) onto a […] inner diameter×80 cm long hollow glass capillary, and electrophoresed at 20 kV. NDGA was detected by absorbance at 280 nm. The amount of NDGA in the experimental samples was calculated from the peak area following calibration of the NDGA standards dissolved directly in capillary zone electrophoresis (CZE) buffer. Based on capillary zone electrophoretic analysis of NDGA-containing medium, NDGA disappears from the medium with time in culture, even in the absence of cells (FIGS. 13A and 13B). NDGA was dissolved in DMSO to 10 mM and then diluted 100-fold into the medium. For the zero time point, the medium containing NDGA was diluted 3-fold with CZE buffer and electrophoresed immediately. For the 24 hour time point, the medium was incubated at 37° C. in a cell culture incubator before diluting 3-fold and electrophoresing. […] The fate of the NDGA is unclear. Its disappearance may involve oxidation of the catechols to quinones, since the medium developed a brown pigment similar to that formed from chemically oxidized NDGA. In the medium containing […] NDGA, less than 10% of the initial NDGA remained after 24 hours, decreasing the NDGA concentration to below […] (FIGS. 13A and 13B).

[3] = system: confluent tendon fibroblasts; assay: Cytotoxicity test of NDGA and its oxidation products, CYQUANT viable cell number; assay type: cell-based, calf
Experimental: as §1
Cytotoxicity tests: The potential toxicity of NDGA, its reaction products, and the NDGA cross-linked fibers was determined using confluent tendon fibroblasts. NDGA was tested by dissolving NDGA in DMSO, then directly diluting in the medium containing 10% FBS to the desired final concentrations. […] Fibroblasts were cultured in the presence of NDGA or its oxidation products for 24 hours, and then the number of viable cells was measured with the CYQUANT® Cell Proliferation Assay Kit (Molecular Probes).

[4] = medium containing, after 24 hours

Effect on cell replication ([1]; 1 and 10 mM NDGA, culture 1, 2, 4 weeks): no effect
Effect on cell replication ([1]; one hundred millimolar NDGA, after first week rate similar to control): temporary delay in replication
NDGA vanished from medium ([2]; 10 mM in DMSO diluted 100-fold into medium, 37° C., no cells, by 24 hours): over 95%
Initial NDGA remaining in medium [2, 4]: less than 10%
NDGA concentration in medium [2, 4]: below 100 mM
SMILES: CC(Cc1ccc(O)c(O)c1)C(C)Cc1ccc(O)c(O)c1 (centres unmarked) [NDGA, Nordihydroguaiaretic acid]
Effect on cell replication ([1]; highest NDGA concentration): toxic to the cells
Reduction in viable cells ([3]; 1000 mM NDGA, after 24 hr): 80%
Effect on cell viability over that of DMSO alone ([3]; NDGA at 1, 10, and 100 mM, 24 hours of exposure): little effect
